Assay results as given in patent US4971964A, “Pyridine derivatives” (priority 1988, dated 1990).

Legend:
dd male mice = experiment: Acute Toxicity Test (minimum lethal dose, MLD); assay type: in vivo; conditions: dd male mice, mortality after 7 days
Procedure: A test compound was given to dd male mice weighing 20±1 g (3 mice per group) per os. (p.o.; 300 mg/kg) or intraperitoneally (i.p.; 100 mg/kg). The mortality after 7 days from the administration was considered to determine the minimum lethal dose (MLD).

[1] = target: T1, thromboxane synthase (TXA2 synthase), bovine platelet microsome (Bos taurus, UniProt Q2KIG5); experiment: Test on Inhibition of TXA2 Biosynthesis (bovine platelet microsome, TXB2 by radioimmunoassay); assay type: biochemical
T1 construct: bovine platelet microsome; from tissue; host or cells: bovine platelets (microsome)
T1 sequence (Q2KIG5 1-533): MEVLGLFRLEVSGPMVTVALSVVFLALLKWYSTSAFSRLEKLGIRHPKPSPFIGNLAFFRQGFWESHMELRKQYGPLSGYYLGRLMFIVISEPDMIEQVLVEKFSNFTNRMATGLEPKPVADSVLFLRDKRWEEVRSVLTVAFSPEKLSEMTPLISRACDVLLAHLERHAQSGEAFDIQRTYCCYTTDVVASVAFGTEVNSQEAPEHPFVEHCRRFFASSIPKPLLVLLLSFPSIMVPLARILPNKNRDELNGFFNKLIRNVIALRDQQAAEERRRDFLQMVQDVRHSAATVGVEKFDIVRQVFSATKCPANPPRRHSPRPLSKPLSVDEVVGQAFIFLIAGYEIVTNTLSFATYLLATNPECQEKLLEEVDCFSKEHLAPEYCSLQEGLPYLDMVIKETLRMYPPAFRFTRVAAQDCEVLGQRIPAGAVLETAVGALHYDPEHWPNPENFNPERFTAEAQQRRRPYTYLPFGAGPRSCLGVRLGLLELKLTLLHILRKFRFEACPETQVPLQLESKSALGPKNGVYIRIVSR
Procedure: A mixture of 70 μl of bovine platelet microsome [protein: 40 μg; 100 mM tris-HCl buffer (pH=7.4)] and 10 μl of a test compound solution (100 mM tris-HCl buffer containing 10% methanol) was allowed to stand at 0° C. for 5 minutes, and 20 μl of a prostaglandin H2 solution (100 mM tris-HCl buffer supplemented with acetone containing 0.1 nmol of prostaglandin H2) was added thereto as a substrate.
The amount of thromboxane B2 (TXB2) (stable degradation product of TXA2) produced in the system was determined by radioimmunoassay [F. A. Fitzpatrick et al., Methods in Enzymology, Vol. 86, p.286 (1982)].
Inhibition of TXB2 synthesis was evaluated by IC50 (50% inhibitory concentration) or percent inhibition as calculated from equation described below, and the results obtained are shown in Table 1. [formula]

| SMILES | Acute Toxicity (MLD) ip (dd male mice) [mg/kg] | Acute Toxicity (MLD) po (dd male mice) [mg/kg] | IC50 ([1]; bovine platelet microsome, pH 7.4, prostaglandin H2 substrate) [nM] | inhibition at 10 µM [1] [%] |
| --- | --- | --- | --- | --- |
| O=C(O)CCCC/C=C1/c2ccccc2NC(=O)c2ccncc21 [Compound I-10Z, (Z)-11-(5-carboxypentylidene)-5,11-dihydropyrido[4,3-c][1]benzazepin-5(6H)-one] | > 100 | > 300 | 16 | – |
| O=C(O)CCCC/C=C1/c2ccccc2NC(=O)c2cnccc21 [Compound I-19E, (E)-5-(5-Carboxypentylidene)-5,11-dihydropyrido[3,4-c][1]benzazepin-11(10H)-one] | > 100 | > 300 | – | 13 |
| O=C(O)CCCCC=C1c2ccncc2CNc2ccccc21 [Compound I-23, 5-(5-carboxypentylidene)-5H-10,11-dihydropyrido[3,4-c][1]benzazepin] | > 100 | > 300 | – | 27 |
